# According to patent publication US5385888A, “Class I MHC modulation or surface receptor activity” (The Regents of the University of California, priority 1993, dated 1995):
# Where a SMILES comes first, the peptide text is derived from it.
# Assays:
# rat adipocytes = format: cell-based
# Experimental: (§1) Preparation of Adipocytes--The procedure has been described in detail previously. Briefly, male Wistar rats (100-150 g) were decapitated, and the epididymal fat pads removed and minced with scissors into KRHB (Krebs-Ringer/HEPES/Bovine serum albumin (BSA) buffer: 80 mM NaCl, 4.7 mM KCl, 2.5 mM CaCl2, 1.2 mM MgSO4, 50 mM HEPES, 5% BSA (Sigma, radioimmunoassay grade), pH 7.2) containing 5 mM D-glucose and 1 mg/ml collagenase (type I, Worthington) and digested (1 hr, 37° C.) with gentle shaking (250 cycles per minute). The adipocytes were washed five times in KRHB (each wash in a volume ten times the cell volume). The adipocyte layer was finally diluted with KRHB to a 10% (v/v) suspension as estimated by the volume of packed cells (lipocrit).
# Glucose uptake in vitro--The uptake of [^14 C]glucose (D-[U-^14 C]glucose, Amersham, (300 Ci/mol)) by isolated rat adipocytes was measured as follows unless otherwise stated: 50 μl adipocyte cell suspension was pipetted into "Nunc-Immuno tube minisorp" (Nunc, Denmark) and preincubated at 37° C. with gentle shaking (225 cycles per minute) for 30 min. Hormones and peptides were added in 50 μl KRHB and incubated for 30 min at 37° C. Before addition to cells, all solutions were neutralized to pH 7.2. [^14 C]glucose tracer (~100,000 dpm) was added and the incubation continued for another 20 minutes at 37° C. The assay was terminated by centrifugation of 100 μl sample on top of 250 μl silicone oil (Thomas Scientific) in 500 μl tubes in a microfuge (10,000×g) for 1 min. The tube was cut just below the adipocyte layer and the amount of radioactivity in the adipocytes determined by scintillation counting. The precise concentration of [^14 C]glucose was calculated from total counts added.
# purified human IR = biological target: T1, purified human IR (Homo sapiens, UniProt P06213); test: Tyrosine kinase activity of purified IR (autophosphorylation); format: biochemical
# T1 construct: The product was a tetramer with two heavy chains, each ~130 kDa, and two light chains, each ~90 kDa; from tissue; host or cells: human placenta
# Experimental: The purified human IR and the cloned cytoplasmic kinase domain (IRKD) have been described (Ellis et al., (1988) Virology 62:1634-39; Roth et al., (1986) J. Biol. Chem. 261:3753-57). Briefly, the human IR was purified from placenta by immunoaffinity columns, using monoclonal antibodies and binding of IR to wheat germ agglutinin. The product was a tetramer with two heavy chains, each ~130 kDa, and two light chains, each ~90 kDa. […] When peptide was used, it was added in 5.0 μl, the volume adjusted to 20 μl by adding buffer, and the mixture incubated (1 hr, 4° C.). After incubation, 10 μl of a solution containing 2.5 μCi ^32 P-labeled ATP (3,000 Ci/mmol; γ-labeled; Amersham) 50 mM HEPES, pH 7.6, 150 mM NaCl, 0.1% Triton X-100, 37.5 μM unlabeled ATP, 15 mM MgCl2, and 6 mm MnCl2 was added to a final volume of 30 μ l. The mixture was then incubated for 30 min. at 24° C. After incubation, 15 μl sample buffer was added, and the sample was boiled for 5 min., and run on 10% SDS-PAGE overnight. The gel was dried, and autoradiograms processed with an exposure time of 5-10 hr. For quantitative estimates the β-subunit band of IR and the IRKD bands were cut out and counted dry (Cerenkov) in a scintillation counter.
# EGFR = biological target: T2, EGFR (Rattus norvegicus, UniProt G3V6K6); test: Cell-associated 125I-labeled EGF on rat adipocytes; format: binding
# T2 construct: male Wistar rats (100-150 g) were decapitated, and the epididymal fat pads removed; endogenous in cells; host or cells: freshly isolated epididymal adipocytes of male Wistar rats
# Experimental: as §1
# Cell-associated ^125 I-labeled EGF--50 μl adipocyte cell suspension was pipetted into "Nunc-Immuno tube minisorp" (Nunc, Denmark) and preincubated at 37° C. with gentle shaking (225 cycles per minute) for 30 min. […] The assay was terminated by centrifugation of 75 μl sample as described above for glucose uptake, and the cell-associated as well as the free ^125 I-labeled EGF was determined by γ-counting. […] The data were calculated as specific cell-associated ^125 I-labeled EGF and the maximal value was in each experiment set to 100%.
# rats = test: Blood glucose levels in whole rats after i.v. injection; format: in vivo, rat; conditions: insulin alone 10 μg/kg i.v.
# Experimental: The effect of D^k -(61-85) in whole rats was determined. […] All animals were starved 16-20 hrs. prior to experimentation. Each determination was based on results as obtained from 42 rats, where the same rats were used in the four treatment schedules. The schedules were a control, a peptide by itself, insulin by itself, and insulin plus peptide. […] The peptide, at about 20 min., the blood glucose had dropped to about 65% of its original value and then slowly rose back to about the original value at about 90 min. and was maintained about the same level.
molecule,measurement,setting,value
CC[C@H](C)[C@H](NC(=O)[C@H](CCC(N)=O)NC(=O)[C@@H](NC(=O)[C@H](CCC(=O)O)NC(=O)[C@H](CCCNC(=N)N)NC(=O)[C@@H](N)CCC(=O)O)[C@@H](C)O)C(=O)N[C@@H](C)C(=O)N[C@@H](CCCCN)C(=O)NCC(=O)N[C@@H](CC(N)=O)C(=O)N[C@@H](CCC(=O)O)C(=O)N[C@@H](CCC(N)=O)C(=O)N[C@@H](CO)C(=O)N[C@@H](Cc1ccccc1)C(=O)N[C@@H](CCCNC(=N)N)C(=O)N[C@H](C(=O)N[C@@H](CC(=O)O)C(=O)N[C@@H](CC(C)C)C(=O)N[C@@H](CCCNC(=N)N)C(=O)N[C@H](C(=O)N[C@@H](CC(C)C)C(=O)N[C@@H](CC(C)C)C(=O)N[C@@H](CCCNC(=N)N)C(=O)N[C@@H](Cc1ccc(O)cc1)C(=O)N[C@@H](Cc1ccc(O)cc1)C(=O)O)[C@@H](C)O)C(C)C [D^k-(61-85)] (H-ERETQIAKGNEQSFRVDLRTLLRYY-OH),EC50,rat adipocytes,10 to 15 µM
"ACTH-(1-24): human ACTH-(1-24), routine control peptide, Peninsula Laboratories",Substrate for IR tyrosine Kinase,purified human IR,None of the control peptides (e.g. ACTH-(1-24) are substrates
"EGF: epidermal growth factor (mouse), Collaborative Research",Glucose uptake above basal,rat adipocytes; EGF alone,~ 50%
same,Apparent affinity of specific cell-associated EGF,EGFR,low nanomolar range
PDGF,Effect on glucose uptake in adipocytes,rat adipocytes; PDGF alone,no effect
"TGFα: TGFα (rat), Peninsula Laboratories",[14C]glucose uptake above basal,rat adipocytes; 50 nM TGFα alone,~ 50%
insulin: unlabeled porcine insulin (NOVO),Blood glucose course compared with peptide alone,rats,A similar result
same,EC50,purified human IR; insulin as stimulus,~0.003 µM
